Assay results reported in patent US9714250B2, “Crystalline forms of temozolomide and the method for preparing same” (Jiangsu Tasly Diyi Pharmaceutical Co., Ltd., priority 2013, dated 2017).

Test: Solubility test
Type: physicochemical
Conditions: for Amount of solvent for dissolving tested drug: about 10 mg tested drug
Protocol: It should be noted that each crystalline form of Form A, Form B and Form C has similar solubility properties. Hereinafter, Form A0, B0 and C were chosen only for illustrative purpose.
1. Solubility test of the crystalline Form A of Temozolomide (Form A0 prepared by the method of EXAMPLE 1). Solubility properties were assayed respectively by using DMSO, methanol, water, glacial acetic acid, 0.1M HCl, 0.1M NaOH and ethanol as the solvents.
2. Solubility test of the crystalline form B of Temozolomide (Form B0 prepared by the method of EXAMPLE 6). Solubility properties were assayed respectively by using DMSO, methanol, water, glacial acetic acid, 0.1M HCl, 0.1M NaOH and ethanol as the solvents.
3. Solubility test of the crystalline form C of Temozolomide (Form C prepared by the method of EXAMPLE 14). Solubility properties were assayed respectively by using DMSO, methanol, water, glacial acetic acid, 0.1M HCl, 0.1M NaOH and ethanol as the solvents.

Structure (SMILES) | Amount of solvent for dissolving 1 g of tested drug (solvent 0.1M HCl) | Solubility (solvent 0.1M HCl) | Amount of solvent for dissolving tested drug (solvent 0.1M HCl) | Amount of solvent for dissolving 1 g of tested drug (solvent 0.1M NaOH) | Solubility (solvent 0.1M NaOH) | Amount of solvent for dissolving tested drug (solvent 0.1M NaOH) | Amount of solvent for dissolving 1 g of tested drug (solvent DMSO) | Solubility (solvent DMSO) | Amount of solvent for dissolving tested drug (solvent DMSO) | Amount of solvent for dissolving 1 g of tested drug (solvent Ethanol) | Solubility (solvent Ethanol) | Amount of solvent for dissolving tested drug (solvent Ethanol) | Amount of solvent for dissolving 1 g of tested drug (solvent Glacial acetic acid) | Solubility (solvent Glacial acetic acid) | Amount of solvent for dissolving tested drug (solvent Glacial acetic acid) | Amount of solvent for dissolving 1 g of tested drug (solvent Methanol) | Solubility (solvent Methanol) | Amount of solvent for dissolving tested drug (solvent Methanol) | Amount of solvent for dissolving 1 g of tested drug (solvent Water) | Solubility (solvent Water) | also measured
Cn1nnc2c(C(N)=O)ncn2c1=O [Form A, Temozolomide] | 700 mL | Slightly soluble | 7 mL | 300 mL | Slightly soluble | 3 mL | 70 mL | sparingly | 0.7 mL | 5500 mL | Very slightly | 55 mL | 300 mL | Slightly soluble | 3.0 mL | 700 mL | Slightly soluble | 7.0 mL | 800 mL | Slightly soluble | Amount of solvent for dissolving tested drug (solvent Water): 8.0 mL
Cn1nnc2c(C(N)=O)ncn2c1=O [Form B, Temozolomide] | 800 mL | Slightly soluble | 8 mL | 300 mL | Slightly soluble | 3 mL | 70 mL | sparingly | 0.6 mL | 5700 mL | Very slightly | 57 mL | 300 mL | Slightly soluble | 3.0 mL | 900 mL | Slightly soluble | 9.0 mL | 800 mL | Slightly soluble | Amount of solvent for dissolving tested drug (solvent Water): 8.0 mL
Cn1nnc2c(C(N)=O)ncn2c1=O [Form C, Temozolomide] | 800 mL | Slightly soluble | 8.0 mL | 300 mL | Slightly soluble | 3.0 mL | 80 mL | sparingly | 0.8 mL | 6000 mL | Very slightly | 60 mL | 300 mL | Slightly soluble | 3.0 mL | 800 mL | Slightly soluble | 8.0 mL | 800 mL | Slightly soluble | Amount of solvent for dissolving tested drug (solvent Water): 8.0 mL
